Measured values: patent EP4786487A1, “PEPTIDE” (Peptidream Inc, priority 2023, dated 2025)
Where two headings read alike, the source gives them in different places. Starred links: 1 amine or outer side, 2 acyl side, 3 side chain; linkers in the order of their positions; H or OH if unused. Positions of bridges follow the written chain, without caps; N, C: chain ends. Non-standard residues stand in square brackets, D forms with d. Residues, ends and D or L forms follow the SMILES beside them. *: point of attachment. Phe(4-(4-pyridyl)) = N[C@@H](Cc1ccc(-c2ccncc2)cc1)C(=O)O; Phe(3-OCH2COOH) = N[C@@H](Cc1cccc(OCC(=O)O)c1)C(=O)O; Piperidine(4-CH2CH2CONH2) = NC(=O)CCC1CCN(*)CC1; Phe(4-COOH) = N[C@@H](Cc1ccc(C(=O)O)cc1)C(=O)O; Trp(7-aza) = N[C@@H](Cc1c[nH]c2ncccc12)C(=O)O; Bip = N[C@@H](Cc1ccc(-c2ccccc2)cc1)C(=O)O; Gly(Nα-CH2CH2CONH2) = NC(=O)CCNCC(=O)O; Gly(decyl) = CCCCCCCCCC[C@H](N)C(=O)O; Gly(N(CH2)3COOH) = O=C(O)CCCNCC(=O)O; NMe3Pal = CN[C@@H](Cc1cccnc1)C(=O)O; X1 = CCCCCCC[C@H](N[*:1])C(=O)[*:2]; NMeF = CN[C@@H](Cc1ccccc1)C(=O)O; NMeE = CN[C@@H](CCC(=O)O)C(=O)O; NMeD = CN[C@@H](CC(=O)O)C(=O)O; Carboxymethyl = O=C(O)C*; NMeA = CN[C@@H](C)C(=O)O; Sar = CNCC(=O)O

Key:
Assay type in all cases: cell-based
Myostatin [1] = biological target: T1, Myostatin (Homo sapiens, UniProt O14793); assay: Reporter gene assay for myostatin signaling in HepG2 cell line, Evaluation Procedure (1), myostatin inhibition; conditions: read-out: IC50 (Luciferase) Myostatin HepG2
T1 construct: active myostatin (also called mature myostatin) is a homodimer consisting of two C-terminal growth factor domains; purchased R&D systems 788-G8/CF
T1 sequence (O14793 267-375): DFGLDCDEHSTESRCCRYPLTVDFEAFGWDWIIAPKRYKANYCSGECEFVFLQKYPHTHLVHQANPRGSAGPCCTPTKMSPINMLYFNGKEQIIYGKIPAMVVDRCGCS
Outline: (§1)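 IC50 derived from One-Glo luciferase luminescence after 20–24 h at 37 °C. Peptides titrated 4-fold at 0.006–100 nmol/L against myostatin or 0.12–2000 nmol/L against GDF-11 in HepG2 cells carrying a transfected CAGA12-luciferase reporter, kept in 0.1% BSA EMEM.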

Myostatin [2] = assay: as above; conditions: GDF-11 IC50 versus Myostatin IC50
Outline: as §1

GDF-11 = biological target: T2, GDF-11 (Homo sapiens, UniProt O95390); assay: Reporter gene assay for myostatin signaling in HepG2 cell line, Evaluation Procedure (1), GDF-11 inhibition; conditions: read-out: IC50 (Luciferase) GDF-11 HepG2
T2 construct: purchased R&D systems 1958-GD-G8/CF
T2 sequence (O95390 299-407): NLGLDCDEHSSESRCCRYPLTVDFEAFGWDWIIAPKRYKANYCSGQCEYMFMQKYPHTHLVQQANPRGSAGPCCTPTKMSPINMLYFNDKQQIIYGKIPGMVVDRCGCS
Outline: as §1

Row | Structure (SMILES) | IC50 (Myostatin [1]; Method A: Myostatin 10 ng/mL) | Selectivity (Myostatin [2]; Method A) | IC50 (GDF-11; Method A: GDF-11 10 ng/mL) | IC50 (Myostatin [1]; Method C: Myostatin 1.5 ng/mL) | Selectivity (Myostatin [2]; Method C) | IC50 (GDF-11; Method C: GDF-11 1 ng/mL)
1 | CC[C@H](C)[C@@H]1NC(=O)[C@H](Cc2ccccc2)N(C)C(=O)[C@H](Cc2ccc(O)cc2)NC(=O)[C@H](Cc2ccc(-c3ccncc3)cc2)NC(=O)[C@H](C)NC(=O)[C@H](CC(=O)O)N(C)C(=O)CSC[C@H](C(=O)O)NC(=O)[C@H](Cc2ccccc2)N(C)C(=O)[C@H](C)N(C)C(=O)[C@H](CC(C)C)NC(=O)[C@H](Cc2ccccc2)N(C)C(=O)[C@H](CCCNC(=N)N)NC(=O)[C@H](Cc2ccc(OCC(=O)O)cc2)NC(=O)[C@H](Cc2cccc(OCC(=O)O)c2)NC(=O)CN(C)C1=O [Myostatin_99_v96] ({CH2CO}-[NMeD]A[Phe(4-(4-pyridyl))]Y[NMeF]I[Sar][Phe(3-OCH2COOH)]Y(Carboxymethyl)R[NMeF]L[NMeA][NMeF][dC]-OH; thioether N-15) | 88.8 nM | 296 | 26300 nM |  |  | 
2 | CC[C@H](C)[C@@H]1NC(=O)[C@H](Cc2ccccc2)N(C)C(=O)[C@H](Cc2ccc(O)cc2)NC(=O)[C@H](Cc2c[nH]c3ncccc23)NC(=O)[C@H](C)NC(=O)CN(CCC(N)=O)C(=O)CSC[C@H](C(=O)O)NC(=O)[C@H](Cc2ccccc2)N(C)C(=O)[C@H](C)N(C)C(=O)[C@H](CC(C)C)NC(=O)[C@H](Cc2ccccc2)N(C)C(=O)[C@H](CCCNC(=N)N)NC(=O)[C@H](Cc2ccc(C(=O)O)cc2)NC(=O)[C@H](Cc2ccccc2)NC(=O)CN(C)C1=O [Myostatin_99_v46] ({CH2CO}-[Gly(Nα-CH2CH2CONH2)]A[Trp(7-aza)]Y[NMeF]I[Sar]F[Phe(4-COOH)]R[NMeF]L[NMeA][NMeF][dC]-OH; thioether N-15) | 43.2 nM | 36 | 1540 nM |  |  | 
3 | CCCCCCCCCC[C@@H]1NC(=O)[C@H](Cc2ccccc2)N(C)C(=O)[C@H](CCCNC(=N)N)NC(=O)[C@H](Cc2ccc(C(=O)O)cc2)NC(=O)[C@H](Cc2cccc(OCC(=O)O)c2)NC(=O)[C@H]2CCCN2C(=O)[C@H]([C@@H](C)CC)NC(=O)[C@H](Cc2ccccc2)N(C)C(=O)[C@H](Cc2ccc(O)cc2)NC(=O)[C@H](Cc2c[nH]c3ccccc23)NC(=O)[C@H](C)NC(=O)[C@H](C)NC(=O)CSC[C@H](C(=O)N2CCC(CCC(N)=O)CC2)NC(=O)[C@H](Cc2ccccc2)N(C)C(=O)[C@H](CCC(=O)O)N(C)C1=O [Myostatin_99_v344] ({CH2CO}-AAWY[NMeF]I[dP][Phe(3-OCH2COOH)][Phe(4-COOH)]R[NMeF][Gly(decyl)][NMeE][NMeF][dC]-{Piperidine(4-CH2CH2CONH2)}; thioether N-15) |  |  |  | 0.08 nM | 812.6 | 62.3 nM
4 | CCCCCCC[C@@H]1NC(=O)[C@H](Cc2ccccc2)N(C)C(=O)[C@H](CCCNC(=N)N)NC(=O)[C@H](Cc2ccc(C(=O)O)cc2)NC(=O)[C@H](Cc2cccc(OCC(=O)O)c2)NC(=O)CN(C)C(=O)[C@H]([C@@H](C)CC)NC(=O)[C@H](Cc2ccccc2)N(C)C(=O)[C@H](Cc2ccc(O)cc2)NC(=O)[C@H](Cc2c[nH]c3ccccc23)NC(=O)[C@H](C)NC(=O)[C@H](C)NC(=O)CSC[C@H](C(=O)O)NC(=O)[C@H](Cc2cccnc2)N(C)C(=O)[C@H](C)N(C)C1=O [Myostatin_99_v214] ({CH2CO}-AAWY[NMeF]I[Sar][Phe(3-OCH2COOH)][Phe(4-COOH)]R[NMeF][X1][NMeA][NMe3Pal][dC]-OH; thioether N-15) | 6.6 nM | 201 | 1320 nM |  |  | 
5 | CC[C@H](C)[C@@H]1NC(=O)[C@H](Cc2ccccc2)N(C)C(=O)[C@H](Cc2ccc(O)cc2)NC(=O)[C@H](Cc2ccc(-c3ccccc3)cc2)NC(=O)[C@H](C)NC(=O)CN(CCCC(=O)O)C(=O)CSC[C@H](C(=O)O)NC(=O)[C@H](Cc2ccccc2)N(C)C(=O)[C@H](C)N(C)C(=O)[C@H](CC(C)C)NC(=O)[C@H](Cc2ccccc2)N(C)C(=O)[C@H](CCCNC(=N)N)NC(=O)[C@H](Cc2ccc(C(=O)O)cc2)NC(=O)[C@H](Cc2ccc(O)cc2)NC(=O)CN(C)C1=O [Myostatin_99_v176] ({CH2CO}-[Gly(N(CH2)3COOH)]A[Bip]Y[NMeF]I[Sar]Y[Phe(4-COOH)]R[NMeF]L[NMeA][NMeF][dC]-OH; thioether N-15) | 17.3 nM | 22 | 377 nM |  |  | 
6 | CC[C@H](C)[C@@H]1NC(=O)[C@H](Cc2ccccc2)N(C)C(=O)[C@H](Cc2ccc(O)cc2)NC(=O)[C@H](Cc2ccc(-c3ccncc3)cc2)NC(=O)[C@H](C)NC(=O)[C@H](C)NC(=O)CSC[C@H](C(=O)O)NC(=O)[C@H](Cc2ccccc2)N(C)C(=O)[C@H](C)N(C)C(=O)[C@H](CC(C)C)NC(=O)[C@H](Cc2ccccc2)N(C)C(=O)[C@H](CCCNC(=N)N)NC(=O)[C@H](Cc2ccc(OCC(=O)O)cc2)NC(=O)[C@H](Cc2cccc(OCC(=O)O)c2)NC(=O)CN(C)C1=O [Myostatin_99_v107] ({CH2CO}-AA[Phe(4-(4-pyridyl))]Y[NMeF]I[Sar][Phe(3-OCH2COOH)]Y(Carboxymethyl)R[NMeF]L[NMeA][NMeF][dC]-OH; thioether N-15) | 2.8 nM | 166 | 466 nM |  |  | 
7 | CC[C@H](C)[C@@H]1NC(=O)[C@H](Cc2ccccc2)N(C)C(=O)[C@H](Cc2ccc(O)cc2)NC(=O)[C@H](Cc2ccc(-c3ccccc3)cc2)NC(=O)[C@H](CO)NC(=O)CN(CCCC(=O)O)C(=O)CSC[C@H](C(=O)O)NC(=O)[C@H](Cc2ccccc2)N(C)C(=O)[C@H](C)N(C)C(=O)[C@H](CC(C)C)NC(=O)[C@H](Cc2ccccc2)N(C)C(=O)[C@H](CCCNC(=N)N)NC(=O)[C@H](Cc2ccc(C(=O)O)cc2)NC(=O)[C@H](Cc2ccc(O)cc2)NC(=O)CN(C)C1=O [Myostatin_99_v186] ({CH2CO}-[Gly(N(CH2)3COOH)]S[Bip]Y[NMeF]I[Sar]Y[Phe(4-COOH)]R[NMeF]L[NMeA][NMeF][dC]-OH; thioether N-15) | 43.2 nM | 22 | 935 nM |  |  | 
8 | CCCCCCC[C@@H]1NC(=O)[C@H](Cc2ccccc2)N(C)C(=O)[C@H](CCCNC(=N)N)NC(=O)[C@H](Cc2ccc(C(=O)O)cc2)NC(=O)[C@H](Cc2cccc(OCC(=O)O)c2)NC(=O)CN(C)C(=O)[C@H]([C@@H](C)CC)NC(=O)[C@H](Cc2ccccc2)N(C)C(=O)[C@H](Cc2ccc(O)cc2)NC(=O)[C@H](Cc2c[nH]c3ccccc23)NC(=O)[C@H](CO)NC(=O)CN(CCCC(=O)O)C(=O)CSC[C@H](C(=O)O)NC(=O)[C@H](Cc2ccccc2)N(C)C(=O)[C@H](C)N(C)C1=O [Myostatin_99_v161] ({CH2CO}-[Gly(N(CH2)3COOH)]SWY[NMeF]I[Sar][Phe(3-OCH2COOH)][Phe(4-COOH)]R[NMeF][X1][NMeA][NMeF][dC]-OH; thioether N-15) | 8.2 nM | 151 | 1240 nM |  |  | 
9 | CC[C@H](C)[C@@H]1NC(=O)[C@H](Cc2ccccc2)N(C)C(=O)[C@H](Cc2ccc(O)cc2)NC(=O)[C@H](Cc2c[nH]c3ccccc23)NC(=O)[C@H](C)NC(=O)[C@H](C)NC(=O)CSC[C@H](C(=O)O)NC(=O)[C@H](Cc2ccccc2)N(C)C(=O)[C@H](C)N(C)C(=O)[C@H](CC(C)C)NC(=O)[C@H](Cc2ccccc2)N(C)C(=O)[C@H](CCCNC(=N)N)NC(=O)[C@H](Cc2ccc(C(=O)O)cc2)NC(=O)[C@H](Cc2cccc(OCC(=O)O)c2)NC(=O)CN(C)C1=O [Myostatin_99_v192] ({CH2CO}-AAWY[NMeF]I[Sar][Phe(3-OCH2COOH)][Phe(4-COOH)]R[NMeF]L[NMeA][NMeF][dC]-OH; thioether N-15) | 12.1 nM | 170 | 2060 nM |  |  | 
10 | CCCCCCC[C@@H]1NC(=O)[C@H](Cc2ccccc2)N(C)C(=O)[C@H](CCCNC(=N)N)NC(=O)[C@H](Cc2ccc(C(=O)O)cc2)NC(=O)[C@H](Cc2cccc(OCC(=O)O)c2)NC(=O)CN(C)C(=O)[C@H]([C@@H](C)CC)NC(=O)[C@H](Cc2ccccc2)N(C)C(=O)[C@H](Cc2ccc(O)cc2)NC(=O)[C@H](Cc2c[nH]c3ncccc23)NC(=O)[C@H](CO)NC(=O)CN(CCCC(=O)O)C(=O)CSC[C@H](C(=O)O)NC(=O)[C@H](Cc2ccccc2)N(C)C(=O)[C@H](C)N(C)C1=O [Myostatin_99_v162] ({CH2CO}-[Gly(N(CH2)3COOH)]S[Trp(7-aza)]Y[NMeF]I[Sar][Phe(3-OCH2COOH)][Phe(4-COOH)]R[NMeF][X1][NMeA][NMeF][dC]-OH; thioether N-15) | 6.1 nM | 15 | 90 nM |  |  | 
11 | CC[C@H](C)[C@@H]1NC(=O)[C@H](Cc2ccccc2)N(C)C(=O)[C@H](Cc2ccc(O)cc2)NC(=O)[C@H](Cc2ccc(-c3ccccc3)cc2)NC(=O)[C@H](C)NC(=O)[C@H](C)NC(=O)CSC[C@H](C(=O)O)NC(=O)[C@H](Cc2ccccc2)N(C)C(=O)[C@H](C)N(C)C(=O)[C@H](CC(C)C)NC(=O)[C@H](Cc2ccccc2)N(C)C(=O)[C@H](CCCNC(=N)N)NC(=O)[C@H](Cc2ccc(C(=O)O)cc2)NC(=O)[C@H](Cc2ccc(O)cc2)NC(=O)CN(C)C1=O [Myostatin_99_v189] ({CH2CO}-AA[Bip]Y[NMeF]I[Sar]Y[Phe(4-COOH)]R[NMeF]L[NMeA][NMeF][dC]-OH; thioether N-15) | 6.9 nM | 34 | 234 nM |  |  | 
